Values after ≈ are worked out from the molar mass of the structure shown. Like-named read-outs stand apart in the source and are kept apart here.

Results on 2 molecules are retold here after paper PMC4538536, “In Silico-Based High-Throughput Screen for Discovery of Novel Combinations for Tuberculosis Treatment” (Antimicrobial Agents and Chemotherapy, 2015).

Data set [1] can be described thus: In vivo pharmacokinetics in infected mice (plasma, LC-MS/MS). Further details: species or system BALB/c mice. As to conditions: mouse; for AUC(0-t) / Cmax: po, steady state, infected mice. As for the experimental part:
The drugs were formulated in 0.5% hydroxypropyl methyl cellulose (HPMC)–0.1% Tween 80 suspensions as 3- or 4-drug combinations. Formulations were prepared by weighing and adding each compound to the bottle, according to the design. Formulation vehicle was added, and the suspension was stirred overnight. Only uniform suspensions were used, while those that precipitated were abandoned. Formulations were prepared every week, and compound stability was estimated at the end of the week. Pharmacokinetics (PK) analysis was performed on infected mice on the 20th day of dosing. Blood samples were collected from each mouse at 0.5, 2, 4, 6, and 24 h after compound administration. Blood samples of about 30 μl were collected from mice in all groups by serial sampling via the saphenous vein into Microvette CB300 tubes (Starstedt, Germany) coated with EDTA, and plasma (10 μl) was separated following centrifugation. Plasma samples were stored at –20°C until analysis using liquid chromatography-tandem mass spectrometry (LC-MS/MS).
A 1-mg/ml stock solution of each compound was prepared in dimethyl sulfoxide (DMSO) for all of the analytes except PZA and LZD, for which the stock solution was 10 mg/ml in DMSO, and RIF, for which the stock solution was prepared in 50% acetonitrile in water. Three different sets of calibration standard (CS) combinations were prepared by 2-fold dilution of the stock solutions. CS set 1 contained analytes CLO, BDQ, PA824, PZA, and SQ109, CS set 2 contained analytes BTZ043, MXF, THI, EMB, and PZA, and CS set 3 contained LZD, INH, RIF, and PZA. A 16-point calibration curve was utilized for all analytes, and the standard curves ranged from 0.0005 to 20 μg/ml except for PZA and LZD, for which the standard curve range was 0.006 to 200 μg/ml. Plasma samples were precipitated by adding chilled acetonitrile (1:10, vol/vol) containing carbamazepine as an internal standard (10 ng/ml). Samples were vortexed and then centrifuged at 4,000 rpm for 30 min at 10°C. The resulting supernatant was mixed with the mobile phase (50% acetonitrile in water with 0.1% formic acid). Five microliters of the sample was injected on to a liquid chromatographic system (Acquity ultraperformance liquid chromatography [UPLC] system, Waters, Milford, MA) coupled to a triple-quadrupole mass spectrometer (Xevo TQ-S; Waters, Milford, MA). Samples were separated on an LC column (ACE 3 C18, 50 by 4.6 mm, 3 μm particle size; Advanced Chromatography Technologies, Aberdeen, Scotland) by isocratic elution with 40 parts of 20 mM ammonium formate containing 0.1% (vol/vol) formic acid and 60 parts of acetonitrile at a flow rate of 0.5 ml/min with a run time of 4 min. Samples were acquired in positive ion mode and detected by multiple reaction monitoring (MRM). The concentrations of the analyte were determined from a standard curve obtained by plotting known concentrations of the analyte against peak area ratios (analyte/internal standard peak response).
PK analyses of the plasma concentration-time relationships were performed with Phoenix software (version 6.2; Pharsight, USA). A noncompartmental analysis program, model 200, was used to calculate PK parameters. The maximum concentration of drug in plasma (Cmax), time to Cmax (Tmax), elimination half-life (t1/2), and area under the concentration-time curve (AUC) from time zero to infinity (AUC0–∞) were estimated. AUC was computed using the trapezoidal rule (linear up and log down), and the AUC0–∞ was considered only when the extrapolated AUC was not more than 20% of the original value. A minimum of three sample points in the terminal slope were used to calculate half-life.

Data set [2] relates to M. tuberculosis H37Rv. Description: In vitro bactericidal-effect analysis (CFU enumeration of checkerboard wells). It is filed as cell-based, Mycobacterium tuberculosis. As to conditions: single drug at its MIC (FIC of 1); positive = reduction in CFU. Here is the method:
For determining the extent of the bactericidal effect, sample wells which remained blue in the resazurin microtiter assay (REMA) and whose ΣFICs were within the synergistic-to-additive range (<0.7 for doublets and <1.5 for triplets) were plated on Middlebrook 7H10 agar medium and incubated at 37°C for 21 to 28 days, following which bacterial colonies were enumerated to obtain the net reduction in CFU in comparison to the counts for the untreated controls at the start of drug testing, as well as to that achieved when M. tuberculosis was exposed to each drug alone.

The conditions of data set [3]: tested individually; SQ109 at 25 mg/kg of body weight, EMB at 100-mg/kg dose; cited from earlier work.
Data set [4] relates to M. tuberculosis H37Rv. The experiment in a line: MIC determination, resazurin-based microplate assay. It is filed as cell-based, Mycobacterium tuberculosis. As to conditions: Mycobacterium tuberculosis, single drug.

`CC[C@@H](CO)NCCN[C@@H](CC)CO` [Ethambutol]: the AUC (in general, the area under the concentration-time curve, a measure of exposure) in data set [1] (BALB/c, plasma, oral, SQ109 25 mg/kg, EMB 100 mg/kg, in 3- and 4-drug combinations, read-out: observed AUC in combinations) is 4000 to 9900 ng·h/mL. The AUC(0-t) in data set [1] (BALB/c, plasma, 25 mg/kg, Group 5 triplet EMB 100/BDQ 25/SQ109 25 mg/kg oral, read-out: AUC0-24 in Triplet) came to 4100 ± 1400 ng·h/mL; in data set [1] (BALB/c, plasma, 100 mg/kg, Group 8 triplet PA824 50/BDQ 25/EMB 100 mg/kg oral, read-out: AUC0-24 in Triplet), 9900 ± 1600 ng·h/mL; in data set [1] (BALB/c, plasma, 100 mg/kg, Ref. regimen triplet INH 30/RIF 10/EMB 100 mg/kg oral, read-out: AUC0-24 in Triplet) it was 7900 ± 2800 ng·h/mL; in data set [1] (BALB/c, plasma, 130 mg/kg, Group 9 triplet EMB 100/SQ109 25/LZD 130 mg/kg oral, read-out: AUC0-24 in Triplet), 9600 ± 1600 ng·h/mL; in data set [1] (BALB/c, plasma, 150 mg/kg, Group 5 quartet EMB 100/BDQ 25/SQ109 25/PZA 150 mg/kg oral, read-out: AUC0-24 in Quartet) it was 4000 ± 1100 ng·h/mL; in data set [1] (BALB/c, plasma, 150 mg/kg, Group 8 quartet PA824 50/BDQ 25/EMB 100/PZA 150 mg/kg oral, read-out: AUC0-24 in Quartet), 5700 ± 1100 ng·h/mL. Besides, the AUC(0-t) in data set [1] (BALB/c, plasma, 150 mg/kg, Ref. regimen quartet INH 30/RIF 10/EMB 100/PZA 150 mg/kg oral, read-out: AUC0-24 in Quartet) turned out to be 6600 ± 1800 ng·h/mL. Also, the Cmax (commonly the peak of the concentration-time curve) in data set [1] (BALB/c, plasma, 25 mg/kg, Group 5 triplet EMB 100/BDQ 25/SQ109 25 mg/kg oral, read-out: Cmax in Triplet) worked out at 1300 ± 600 ng/mL; in data set [1] (BALB/c, plasma, 100 mg/kg, Group 8 triplet PA824 50/BDQ 25/EMB 100 mg/kg oral, read-out: Cmax in Triplet) it was 2700 ± 200 ng/mL; in data set [1] (BALB/c, plasma, 100 mg/kg, Ref. regimen triplet INH 30/RIF 10/EMB 100 mg/kg oral, read-out: Cmax in Triplet), 2200 ± 500 ng/mL; in data set [1] (BALB/c, plasma, 130 mg/kg, Group 9 triplet EMB 100/SQ109 25/LZD 130 mg/kg oral, read-out: Cmax in Triplet), 1100 ± 200 ng/mL; in data set [1] (BALB/c, plasma, 150 mg/kg, Group 5 quartet EMB 100/BDQ 25/SQ109 25/PZA 150 mg/kg oral, read-out: Cmax in Quartet), 1200 ± 500 ng/mL; in data set [1] (BALB/c, plasma, 150 mg/kg, Group 8 quartet PA824 50/BDQ 25/EMB 100/PZA 150 mg/kg oral, read-out: Cmax in Quartet) it was 1500 ± 300 ng/mL. The Cmax in data set [1] (BALB/c, plasma, 150 mg/kg, Ref. regimen quartet INH 30/RIF 10/EMB 100/PZA 150 mg/kg oral, read-out: Cmax in Quartet) turned out to be 1700 ± 600 ng/mL. Further, the “plasma exposure in combination compared with individual (reported) exposure” value in data set [1] (in vivo) is “lower”. In addition, in the data set with M. tuberculosis H37Rv [2], the “ΔLog10 CFU/ml at the MIC” value was 1.40 Log10 CFU/ml. For the same molecule, the “reported AUC” value in data set [3] was 28 µg·h/mL. In the data set with M. tuberculosis H37Rv [4], it took 19.6 µM (≈ 4.01 µg/mL) to inhibit growth (MIC).

In the case of `CC(=O)Nc1ccc(/C=N/NC(N)=S)cc1` [Thiacetazone], the AUC(0-t) in data set [1] (BALB/c, plasma, 25 mg/kg, Group 6 triplet BTZ043 37.5/THI 800/SQ109 25 mg/kg oral, read-out: AUC0-24 in Triplet) was 87000 ± 52100 ng·h/mL; in data set [1] (BALB/c, plasma, 150 mg/kg, Group 6 quartet BTZ043 37.5/THI 800/SQ109 25/PZA 150 mg/kg oral, read-out: AUC0-24 in Quartet) it was 68000 ± 16000 ng·h/mL. Also, the highest concentration (Cmax) in data set [1] (BALB/c, plasma, 25 mg/kg, Group 6 triplet BTZ043 37.5/THI 800/SQ109 25 mg/kg oral, read-out: Cmax in Triplet) was 8500 ± 2800 ng/mL; in data set [1] (BALB/c, plasma, 150 mg/kg, Group 6 quartet BTZ043 37.5/THI 800/SQ109 25/PZA 150 mg/kg oral, read-out: Cmax in Quartet), 5100 ± 400 ng/mL. Moreover, the “ΔLog10 CFU/ml at the MIC” value with M. tuberculosis H37Rv [2] was 0.76 Log10 CFU/ml. Besides, the MIC – broadly, the lowest concentration that inhibits growth of the organism – in the data set with M. tuberculosis H37Rv [4] was 8.47 µM (≈ 2 µg/mL).
